Results from patent US20100255020A1, “METHOD FOR INDUCING CYTOTOXIC T-CELLS, CYTOTOXIC T-CELL INDUCERS, AND PHARMACEUTICAL COMPOSITIONS AND VACCINES EMPLOYING THEM” (NEC CORPORATION, priority 2007, published 2010).
Where no end group is shown, it is not given here.

Legend:
HLA-A*2402 molecule = HLA-A*2402 molecule (Homo sapiens, UniProt P04439, D101N/D140Y/D185E/E176V/E190D/F33S/G103R/G107R/I119L/I121M/I306V/K335N/L105A/L180Q/L300P/N151K/N90K/Q86E/Q94H/R106L/R138H/R89G/T104I/T345S/V100E/W191G/Y123F); test: Peptide binding to HLA-A*2402 molecule on C1R-A24 cells (flow cytometry, Kd); conditions: HLA-A*2402, C1R-A24 cells; read-out: Binding assay data (−log Kd) (converted)
Description: The ability of a peptide to bind to an HLA-A*2402 molecule, which is a product of the HLA-A*2402 gene, was measured using C1R-A24 cells expressing the HLA-A*2402 molecule (cells generated by Professor Masafumi Takiguchi, Kumamoto University being supplied with permission by Associate Professor Masaki Yasukawa, Ehime University).
C1R-A24 cells were first exposed to acidic conditions at a pH of 3.3 for 30 seconds, thus dissociating and removing a β2m light chain, which is associated with HLA class I molecules in common, and an endogenous peptide originally bound to the HLA-A*2402 molecule. After neutralization, purified β2m was added to C1R-A24 cells, the obtained product was added to serial dilutions of a peptide, and incubated on ice for 4 hours. […]
Subsequently, the number of MHC-pep complexes per C1R-A24 cell (proportional to the intensity of fluorescence of the above-mentioned fluorescent antibody) was quantitatively measured using a FACScan fluorescence-activated flow cytometer (Becton Dickinson Biosciences). A dissociation constant Kd value between the HLA-A*2402 molecule and the peptide was calculated from the average intensity of fluorescence per cell by a method published in the literature (Udaka et al., Immunogenetics, 51, 816-828, 2000).

HLA-A*0201 molecule = HLA-A*0201 molecule (Homo sapiens, UniProt P04439, D140Y/D185E/D98H/E176V/E277Q/G131W/G231S/I119V/I121R/I166T/I218V/L300P/L318F/N151K/N90K/P208A/P217A/Q86G/Q94H/R138H/R169H/T345S); test: Peptide binding to HLA-A*0201 molecule on JY cells (flow cytometry, Kd); conditions: HLA-A*0201, JY cells; read-out: Binding assay data (−log Kd) (converted)
Description: The ability of a peptide to bind to an HLA-A*0201 molecule, which is a product of the HLA-A*0201 gene, was measured using strain JY cells expressing the HLA-A*0201 molecule.
JY cells were first exposed to acidic conditions at a pH of 3.8 for 30 seconds, thus dissociating and removing a β2m light chain and an endogenous peptide, which were noncovalently associated with the HLA-A* 0201 molecule. After neutralization, a reconstitution experiment was carried out.
The above-mentioned JY cells and the purified […] were added to serial dilutions of peptide for which the binding ability needs to be measured, and incubation was carried out on ice for 4 hours. HLA-A*0201 molecules that had reassociated up to this time point were stained using the fluorescently-labeled monoclonal antibody BB7.2, a conformation dependent monoclonal Ab specific for an assembled form of HLA-A*0201 molecule.
Subsequently, the amount of fluorescence per cell was measured using a flow cytometer and a dissociation constant Kd value was calculated by a method published in the literature (Udaka et al., Immunogenetics, 51, 816-828, 2000).

[1] = test system: peptide-loaded target cells (C1R-A24, RA24, T2); test: 51Cr release assay of PBMC killing activity against peptide-loaded target cells; type: cell-based, human
Description: Target cells were labeled with ^51Cr and loaded with HLA-binding peptide of interest. 5,000 or 10,000 cells/well of target cells were placed in 96-well U-bottom plate, and then, PBMCs having been stimulated twice in vitro were added thereto as a responder. Cells were incubated at 37° C. for 5 hours and ^51Cr released from the damaged cells during the incubation was measured, and % specific lysis was calculated. As target cells C1R-A24 or RA24 cells were used as a target when reactivity to HLA-A*2402 binding peptides were examined, and T2 cells were used as a target and incubation was carried out for 2 hours after addition of responder cells. Percent specific lysis was calculated as follows. % specific lysis=(test release-spontaneous release)/(total release-spontaneous release)×100.

HLA-A*0206 molecule = biological target: T1, HLA-A*0206 molecule (Homo sapiens, UniProt P04439, D140Y/D185E/D98H/E176V/E277Q/F33Y/G131W/G231S/I119V/I121R/I166T/I218V/L300P/L318F/N151K/N90K/P208A/P217A/Q86G/Q94H/R138H/R169H/T345S); test: Peptide binding to HLA-A*0206 molecule on RA2.6 cells (flow cytometry, Kd); conditions: HLA-A*0206, RA2.6 cells; read-out: Binding assay data (−log Kd) (converted)
T1 construct: expressed in transfected cells; host or cells: RA2.6 (mouse TAP-deficient RMAS cells transfected with pMKITneo bearing HLA-A*0206 cDNA)
Description: The ability of a peptide to bind to an HLA-A*0206 molecule, which is a product of the HLA-A*0206 gene, was measured using RA2.6 cells (cell line newly generated in Kochi University), wherein cDNA of the HLA-A*0206 gene is introduced into RMAS, which is a mouse TAP (transporter associated with antigen processing)-deficient cell line.
RA2.6 cells were first cultured overnight at 26° C., during this incubation HLA-A*0206 molecules devoid of bound peptide accumulated. Serial dilutions of peptide were added to these cells and peptide binding was carried out at room temperature for 30 minutes.
Subsequently, culture was carried out at 37° C. for 3.5 hours, during this incubation empty HLA-A*0206 molecules to which no peptide was bound were denatured, and the tertiary structure was lost.
The cells were stained by adding thereto fluorescently-labeled monoclonal antibody BB7.2, which specifically recognizes the peptide-bound HLA-A*0206 molecule, and incubating on ice for 20 minutes.
Subsequently, the amount of fluorescence per cell was measured using a flow cytometer, and a dissociation constant Kd value was calculated by a method published in the literature (Udaka et al., Immunogenetics, 51, 816-828, 2000).

[2] = test system: HLA-A*2402 positive cell lines that express WT1 naturally (KAZZ, KCL22, KH88, MEG01); test: Reactivity of WT1 peptide-specific cell lines toward tumor cells (IFN-γ ELISPOT); type: cell-based, human; conditions: cell lines established from HLA-A*2402 positive patients, FIG. 5
From the text: Reactions of cell lines established from different patients are arranged in a bar graph.

malignant tumors = test: Peptide immunotherapy of patients, tumor response by RECIST criteria (CT/MRI); type: in vivo, human; design: key to RECIST, single lung metastasis / RECIST, total sum of longest diameters of 10 metastatic target lesions / RECIST, pubic bone metastatic tumor / RECIST determination 3 months after starting W10 peptide therapy: CR: all target lesions have disappeared; PR: the sum of the longest diameters of the target lesions decreases by at least 30%; PD: the sum of the longest diameters of the target lesions increases by at least 20%; SD: the change of tumr size is between PR or PD
Description: Among 18 patients, 3 people are illustrated in the style of case reports. […] The mixture was prepared immediately prior to administration. When W10 peptide was administered without petussis vaccine in the safety test, W10 peptide solution was divided into 4 equal portions and injected intradermally at 4 locations in the same manner. A method to measure the diameter of a tumor and a method to analyze peptide-specific T-cells using an HLA-A24 tetramer by flow cytometry are described below.
The international RECIST criteria referred to here is an evaluation standard described in Theresse, P. et al., J Natl Cancer Inst. 2000, 92, 205-216. When there is confirmation by helical CT or MRI that all target lesions have disappeared this is defined as CR (complete response), when the sum of the longest diameters of the target lesions decreases by at least 30% this is defined as PR (partial response), when the sum of the longest diameters of the target lesions increases by at least 20% this is defined as PD (progressive disease), and when the change of tumr size is between PR or PD this is defined as SD (stable disease). However, regardless of the presence or absence of a change in the target lesions, when even one new lesion appears this is defined as PD.
Based on the above-mentioned international RECIST criteria, which is used for evaluation of anticancer drugs, all measurable tumors were selected as target tumors, and change in the SLD of the tumors over the course of the therapy was monitored. In addition, number of all the tumors was counted, regardless of the size of a tumor, every time diagnostic imaging was carried out in order to lookout for new lesions. Diagnostic imaging was carried out in principle once a month by helical CT or MRI. If even one new metastasis appeared, regardless of the change in the primary lesion, it was judged as PD.
Clinical responses were evaluated according to the aforementioned international RECIST criteria for 18 patients who had been treated by immunotherapy using W10+Wc for at least 3 months and one week. Eight cased out of 18 patients were judged as SD, 10 cased were PD. […] In reports on peptide immunotherapy so far, the tumor control rate was limited to a few % up to ten or so % worldwide (Reference Documents 1 to 4). Compared with these already reported cases, this is a good reaction.

[3] = HLA-A*2402 binding peptides, FIG. 9a and b

Sequence | Kd (HLA-A*2402 molecule) | Kd (HLA-A*0201 molecule) | Peptide-reactive cytolytic cells in PBMCs of patients ([1]; HLA-A*0201 binding peptides, T2 targets) | Peptide-reactive cytolytic cells in PBMCs of patients [1, 3] | Kd (HLA-A*0206 molecule) | Reactivity of peptide-dependent cell line toward WT1-expressing cell lines compared with C1R-A24 [2] | Effect of immunotherapy on tumor (malignant tumors; patient KB07-005, prostate cancer, 235Y from December 2006) | Primary tumor by MRI (malignant tumors; patient KB07-006, 3 mg 235Y emulsified with Montanide, weekly intradermal, 4th week) | RECIST, single lung metastasis (malignant tumors; patient KB07-006, 235Y immunization for 10 months) | Primary tumor on continued immunization (malignant tumors; patient KB07-006, 235Y weekly, no recurrence at three and a half years)
RVPGVAPTL [W302] | 21.4 nM | 389 nM | contain cytolytic cells that recognize | cytolytic cells include those reactive | 245 nM | tends to be higher although differences are small | – | – | – | –
GVFRGIQDV [W292] | – | – | – | – | 331 nM | – | – | – | – | –
CYTWNQMNL (listed as Homo sapiens) [235Y, reference compound] | – | – | – | cytolytic cells include those reactive | – | tends to be higher although differences are small | no effect | apparent reduction of the primary tumor | SD | disappeared
